The values below come from paper PMC9034499, “RORγt agonist enhances anti-PD-1 therapy by promoting monocyte-derived dendritic cells through CXCL10 in cancers” (Journal of Experimental & Clinical Cancer Research : CR, 2022).

By EC50 is commonly meant the midpoint of the concentration-response curve.

Some results are limits rather than exact numbers.

For assay [1], the system named is mutated RORγt protein at key binding sites. Put plainly: Biacore binding to mutated RORγt LBD protein. More on the design: species or system human. The source says:
Human nuclear receptor RORγt (residues 263–509)-GGG-SRC1 (SRC1 sequence: EKHKILHRLLQDS, Sangon Biotech, Shanghai). RORγt LBD was cloned in pET28a. Key residue mutations of RORγt LBD (such as PHE388, LEU391, CYS393, LEU396, ILE397, ILE400, CYS320, ALA321, LEU324, MET358, and PHE388) with LYC-55716 were cloned in pET28a. Key residue mutations of RORγt LBD (MET365, ALA368, PHE401, ILE400, ILE397, LEU396, TRP317, CYS320, LEU324, ALA327, TYR330, VAL331, MET358, and VAL361) with 8-074 were cloned in pET28a. The proteins were expressed in E. coli strain DE3. Then, the transformed E. coli culture was grown at 37 °C with 30 μg/mL Kanamycin LB (Luria–Bertani). When the OD600 of LB medium reached 0.6, the temperature was changed to 16 °C, and isopropyl-β-D-thiogalactopyranoside (IPTG, Beyotime, Shanghai, China) was added at a final concentration of 0.4 mM to induce protein expression for 16 h. After 16 h, the pellet was collected after centrifugation at 4,000 rpm for 15 min at 4 °C. […]
The RORγt protein was immobilized on a CM5 chip (GE Health, Chicago, USA) using Biaocre 8 K. A sensogram was obtained using different serial concentrations of 8-074 (5000 nM, 2500 nM, 1250 nM, 625 nM, 312.5 nM, 156.25 nM, 78.125 nM, and 39.0625 nM). […] Data were analyzed using Biacore Evaluation Software.

The next assay concerns the target T1, RORβ (Homo sapiens, UniProt Q92753).
T1 construct: expressed in transfected cells
T1 sequence (Q92753 1-470): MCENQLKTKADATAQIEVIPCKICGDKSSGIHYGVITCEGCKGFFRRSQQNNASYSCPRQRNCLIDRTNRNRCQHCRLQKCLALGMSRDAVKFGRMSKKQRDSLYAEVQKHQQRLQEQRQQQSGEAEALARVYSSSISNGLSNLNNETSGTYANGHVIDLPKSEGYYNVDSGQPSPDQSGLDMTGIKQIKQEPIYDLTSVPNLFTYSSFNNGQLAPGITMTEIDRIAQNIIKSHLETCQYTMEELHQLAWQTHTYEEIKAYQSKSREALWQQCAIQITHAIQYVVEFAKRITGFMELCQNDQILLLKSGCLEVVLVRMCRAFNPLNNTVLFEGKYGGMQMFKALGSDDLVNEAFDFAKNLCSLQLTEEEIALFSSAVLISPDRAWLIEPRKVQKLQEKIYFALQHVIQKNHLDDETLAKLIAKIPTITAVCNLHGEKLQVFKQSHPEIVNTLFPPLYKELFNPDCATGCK
In words: RORβ Gal4 reporter gene assay. The format is cell-based. The method, then: The hRORγt LBD coding sequence was inserted into a pBIND expression vector (Promega, E1581) to express the ROR-GAL4 binding domain chimeric receptors. This expression vector and a reporter vector (pGL4.35, which carries a stably integrated GAL4 promoter-driven luciferase reporter gene [luc2P/9XGAL4 UAS/Hygro]) were co-transfected into the HEK293T host cells. The assay was performed according to a previous study. EC50 of the sigmoidal fits were analyzed using Prism 5 and a four-parameter logistic fit equation, Y = bottom + (top–bottom) / (1 + 10(logEC50 − X) × hill slope). "X" is the log of compound concentration, and "Y" is the response, which increases as X increases. Y starts at "bottom" and goes to "top" with a sigmoid shape.
Supplementary file 13046_2022_2289_MOESM2_ESM.pdf: Additional file 2: Fig. S2. Selectivity of RORγt agonists in vitro. […] Lymphoma EL4 cells were treated with various concentrations of 8-074 for 48 hours and analyzed by flow cytometry after Annexin V-FITC/PI staining. […] (h) The relative mRNA expression of Cd19 in B cells as determined by qPCR. […] (i) Relative mRNA expression of Il-1β levels in macrophages as determined by qPCR. ***P < 0.001. (j) Relative mRNA expression of Il-6 in macrophages as determined by qPCR. *P < 0.05. (k) Relative mRNA expression of Il-10 in macrophages as determined by qPCR. *P < 0.05. […]

Consider `CCS(=O)(=O)c1ccc(CC(=O)Nc2ccc(-c3ccc(CC(C)C)c(C#N)c3)c(C(F)(F)F)c2)cc1` [8-074], for which, in assay [1], the “binding affinity with the mutated RORγt protein” value is reported as “no binding affinity”. Besides, the EC50 at RORβ was > 10 µM.
